Key:
[1] = biological target: hROMK (human Kir1.1) (Homo sapiens (Human), UniProt P48048); assay: cell-based; settings: CHO T-Rex hROMK stable cell line; thallium flux; 10-point concentration response curve; read-out: Human ROMK Th Flux IC50
Description: Solutions and reagents: Thallium flux assay was performed using FluxOR kit (F10017, Life Technologies). Loading buffer, assay buffer and stimulus buffer were prepared using kit components. HBSS (Hank's balanced salt solution, Cat#14025-092) was purchased separately from Life Technologies.
To prepare 10 ml of loading buffer: 10 μl of FluxOR dye (reconstituted in DMSO) was first added to 100 μl of powerload concentrate and this mix along with 100 μl of Probenicid (100×) was then added to 9.79 ml of HBSS. Assay buffer (10 ml) was prepared by addition of 2 ml of FluxOR chloride free buffer (5×), 100 μl of Probenicid (100×), and 0.2 ml of Ouabain (13.77 mM) to 7.7 ml of deionized water. Stimulus buffer was composed of 15 mM Tl2SO4, 0.75 mM K2SO4 in FluxOR chloride free buffer (diluted to 1× using deionized water). The final concentration of Tl2SO4 and K2SO4 in the assay plate was 3 mM and 0.15 mM, respectively.
Plating and induction of cells: The CHO T-Rex hROMK (human Kir1.1) stable cell line was maintained in Ham's F12 media supplemented with 10% FBS, 1% Penicillin-Streptomycin, 500 μg/ml Zeocin and 10 μg/ml Blasticidin at 37° C. in a 5% CO2 incubator. One day before the experiment, the cells were dissociated by incubation with Versene solution (15040-066, Life Technologies) for 10 minutes at 37° C. followed by addition of growth media. The cell suspension was centrifuged at 1200 rpm for 5 min. After discarding the supernatant, the cells were resuspended in fresh growth media and cell concentration was determined using a hemocytometer. Next, 0.5 μg/ml of Doxycycline was added to the cell suspension to induce hROMK channel expression and 50 μl (10,000 cells/well) of cell suspension was added to each well of a poly-D lysine coated 384 well black, optically clear bottom plate (6007718, Perkin Elmer). The assay plate was kept at 37° C. in a 5% CO2 incubator.
Assay protocol: On the day of experiment, media was removed and loading buffer was added (30 μl/well) to the assay plate. The cells were incubated in the loading buffer for 30 minutes at 37° C. The loading buffer was then replaced by assay buffer (30 μl/well) followed by addition of test compounds or controls. The cells were incubated with compounds for 30 minutes and the plate was then mounted on FlexStation (Molecular Devices) for fluorescence read out with excitation and emission wavelengths at 488 and 525 nm, respectively. Each well was read for 90 sec at 2 sec interval and the stimulus buffer was added after 20 seconds of baseline recording. The final DMSO concentration was either 0.5 or 1% in the assay plate. Positive and negative controls were defined by addition of DMSO or 3 μM of a standard ROMK inhibitor, respectively, to the wells instead of a test compound.
A 10-point concentration response curve was used to estimate the IC50 value of test compounds.

[2] = biological target: hERG channels (Homo sapiens (Human), UniProt Q12809); assay: hERG Manual Patch Clamp Assay; format: cell-based; settings: human, HEK 293 cells stably expressing hERG channels, pH 7.4, 1 uM, read-out: hERG EP % Inh @ 1 uM
Sequence of hERG channels (Q12809 whole entry): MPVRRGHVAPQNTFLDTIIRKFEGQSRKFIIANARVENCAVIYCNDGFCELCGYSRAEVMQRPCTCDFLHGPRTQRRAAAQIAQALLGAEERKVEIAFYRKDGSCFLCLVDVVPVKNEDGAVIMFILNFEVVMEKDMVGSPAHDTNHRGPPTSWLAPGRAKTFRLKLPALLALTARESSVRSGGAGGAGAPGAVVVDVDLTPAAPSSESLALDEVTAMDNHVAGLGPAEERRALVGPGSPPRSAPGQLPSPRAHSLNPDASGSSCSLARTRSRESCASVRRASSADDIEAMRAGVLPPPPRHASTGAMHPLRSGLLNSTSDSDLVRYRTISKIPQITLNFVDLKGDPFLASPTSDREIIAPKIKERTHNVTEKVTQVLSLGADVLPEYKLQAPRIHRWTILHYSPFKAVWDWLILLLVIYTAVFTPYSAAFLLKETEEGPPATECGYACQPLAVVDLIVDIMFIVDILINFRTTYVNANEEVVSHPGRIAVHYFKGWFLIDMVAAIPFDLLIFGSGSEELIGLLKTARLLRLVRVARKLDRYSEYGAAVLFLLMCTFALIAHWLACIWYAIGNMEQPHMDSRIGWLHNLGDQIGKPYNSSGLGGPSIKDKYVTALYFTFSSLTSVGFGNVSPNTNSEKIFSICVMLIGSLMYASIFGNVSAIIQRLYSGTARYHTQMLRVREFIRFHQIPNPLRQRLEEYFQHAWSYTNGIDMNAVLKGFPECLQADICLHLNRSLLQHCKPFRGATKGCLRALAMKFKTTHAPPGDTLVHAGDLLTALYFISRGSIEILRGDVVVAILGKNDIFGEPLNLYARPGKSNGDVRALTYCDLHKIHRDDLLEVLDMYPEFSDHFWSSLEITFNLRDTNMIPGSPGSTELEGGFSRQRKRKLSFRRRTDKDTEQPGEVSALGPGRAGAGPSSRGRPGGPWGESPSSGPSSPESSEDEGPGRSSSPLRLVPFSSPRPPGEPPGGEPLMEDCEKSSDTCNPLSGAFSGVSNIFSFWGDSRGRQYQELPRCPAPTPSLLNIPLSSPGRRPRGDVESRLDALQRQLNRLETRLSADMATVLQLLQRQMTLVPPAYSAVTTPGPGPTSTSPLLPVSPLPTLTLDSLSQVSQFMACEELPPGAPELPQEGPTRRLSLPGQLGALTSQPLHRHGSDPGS

Sequence of hROMK (human Kir1.1) (P48048 whole entry): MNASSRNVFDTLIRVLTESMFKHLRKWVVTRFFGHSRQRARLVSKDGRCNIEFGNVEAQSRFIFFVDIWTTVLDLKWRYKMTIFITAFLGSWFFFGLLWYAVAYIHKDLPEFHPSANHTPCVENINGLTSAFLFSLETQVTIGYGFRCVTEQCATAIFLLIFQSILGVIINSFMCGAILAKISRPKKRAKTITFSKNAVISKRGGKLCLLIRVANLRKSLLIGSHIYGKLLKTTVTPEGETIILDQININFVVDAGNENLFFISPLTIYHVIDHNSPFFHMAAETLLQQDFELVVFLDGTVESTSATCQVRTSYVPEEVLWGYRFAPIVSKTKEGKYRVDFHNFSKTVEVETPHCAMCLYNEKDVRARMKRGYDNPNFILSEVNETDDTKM

Structure (SMILES)	IC50 [1] [nM]	inhibition at 1 µM [2] [%]
COc1cc(-n2cc(CN3C[C@@H](c4ccc5c(c4C)COC5=O)N[C@@H](C)C3)nn2)nc(C)c1C#N [Example 86-I, 4-methoxy-2-methyl-6-(4-(((3S,5R)-3-methyl-5-(4-methyl-1-oxo-1,3-dihydroisobenzofur-an-5-yl)piperazin-1-yl)methyl)-1H-1,2,3-triazol-1-yl)nicotinonitrile]	64	8.8
COc1nc(-n2cc(CN3C[C@@H](c4ccc5c(c4C)COC5=O)N[C@@H](C)C3)cn2)ccc1C#N [Example 93-I, 2-methoxy-6-(4-(((3S,5R)-3-methyl-5-(4-methyl-1-oxo-1,3-dihydroisobenzofur-an-5-yl)piperazin-1-yl)methyl)-1H-pyrazol-1-yl)nicotinonitrile]	44	23
Cc1nc(-n2cnc(CN3C[C@@H](c4ccc5c(c4C)COC5=O)N[C@@H](C)C3)c2)nc(C)c1C#N [Example 95-I, 4,6-dimethyl-2-(4-(((3S,5R)-3-methyl-5-(4-methyl-1-oxo-1,3-dihydroisobenzofur-an-5-yl)piperazin-1-yl)methyl)-1H-imidazol-1-yl)pyrimidine-5-carbonitrile]	26	13
Cc1nc(-n2cc(CN3C[C@@H](c4ccc5c(c4C)COC5=O)N[C@@H](C)C3)cn2)ncc1C#N [Example 96-I, 4-methyl-2-(4-(((3S,5R)-3-methyl-5-(4-methyl-1-oxo-1,3-dihydroisobenzofur-an-5-yl)piperazin-1-yl)methyl)-1H-pyrazol-1-yl)pyrimidine-5-carbonitrile]	27	9.6
Cc1nc(-n2ncc(CN3C[C@H](CO)N[C@H](c4ccc5c(c4C)COC5=O)C3)n2)ncc1C#N [Example 104-I, 2-(4-(((3R,5R)-3-(hydroxymethyl)-5-(4-methyl-1-oxo-1,3-dihydroisobenzofur-an-5-yl)piperazin-1-yl)methyl)-2H-1,2,3-triazol-2-yl)-4-methylpyrimidine-5-carbonitrile]	36	3.4
COc1cc(-n2cc(CN3CC[C@@H](O)[C@H](c4ccc5c(c4C)COC5=O)C3)cn2)ncc1C#N [Example 112-I, 6-(4-(((3R,4R)-4-hydroxy-3-(4-methyl-1-oxo-1,3-dihydroisobenzofur-an-5-yl)piperidin-1-yl)methyl)-1H-pyrazol-1-yl)-4-methoxynicotinonit-rile]	18	22
Cc1cc(-n2cc(CN3CC(c4ccc5c(c4C)COC5=O)C(O)C(C)(C)C3)cn2)ncc1C#N (centres unmarked) [Example 116-I, 6-(4-((4-hydroxy-3,3-dimethyl-5-(4-methyl-1-oxo-1,3-dihydroisobenzofuran-5-yl)piperidin-1-yl)methyl)-1H-pyrazol-1-yl)-4-methylnicotinonitrile]	39	6.4
Cc1cc(-n2cnc(CN3C[C@@H](c4ccc5c(c4C)COC5=O)N[C@@H](C)C3)n2)ncc1C#N [Example 122-I, 4-methyl-6-(3-(((3S,5R)-3-methyl-5-(4-methyl-1-oxo-1,3-dihydroisobenzofuran-5-yl)piperazin-1-yl)methyl)-1H-1,2,4-triazol-1-yl)nicotinonitrile]	50	6.6
Cc1cc(-c2ncc(CN3CC[C@@H](O)[C@H](c4ccc5c(c4C)COC5=O)C3)s2)ncc1C#N [Example 125-I, 6-(5-(((3R,4R)-4-hydroxy-3-(4-methyl-1-oxo-1,3-dihydroisobenzofuran-5-yl)piperidin-1-yl)methyl)thiazol-2-yl)-4-methylnicotinonitrile]	30	8.3
Cc1c([C@@H]2CN(Cc3cnn(-c4ccnc(C(F)(F)F)c4)c3)C[C@H](C)N2)ccc2c1COC2=O [Example 128-I, 4-methyl-5-((2R,6S)-6-methyl-4-((1-(2-(trifluoromethyl)pyridin-4-yl)-1H-pyrazol-4-yl)methyl)piperazin-2-yl)isobenzofuran-1(3H)-one]	66	19
Cc1c([C@@H]2CN(Cc3cnn(-c4ccn(C(F)F)c(=O)c4)c3)C[C@H](C)N2)ccc2c1COC2=O [Example 129-I, 1-(difluoromethyl)-4-(4-(((3S,5R)-3-methyl-5-(4-methyl-1-oxo-1,3-dihydroisobenzofuran-5-yl)piperazin-1-yl)methyl)-1H-pyrazol-1-yl)pyridin-2(1H)-one]	26	32
Cc1c([C@@H]2CN(Cc3cn(-c4ccc(C(F)F)nc4)cn3)C[C@H](C)N2)ccc2c1COC2=O [Example 134-I, 5-((2R,6S)-4-((1-(6-(difluoromethyl)pyridin-3-yl)-1H-imidazol-4-yl)methyl)-6-methylpiperazin-2-yl)-4-methylisobenzofuran-1(3H)-one]	43	22
Cc1c([C@@H]2CN(Cc3ccc(-n4ccc(C#N)n4)nc3)CCN2)ccc2c1COC2=O [Example 136-I, (R)-1-(5-((3-(4-methyl-1-oxo-1,3-dihydroisobenzofuran-5-yl)piperazin-1-yl)methyl)pyridin-2-yl)-1H-pyrazole-3-carbonitrile]	28	29
CCOc1cc(-n2cc(CN3CCN[C@H](c4ccc5c(c4C)COC5=O)C3)cn2)ncc1C#N [Example 137-I, (R)-4-ethoxy-6-(4-((3-(4-methyl-1-oxo-1,3-dihydroisobenzofuran-5-yl)piperazin-1-yl)methyl)-1H-pyrazol-1-yl)nicotinonitrile]	26	23
Cc1c([C@@H]2CN(Cc3cnn(-c4cc(OC(C)C)c(C#N)cn4)c3)CCN2)ccc2c1COC2=O [Example 140-I, (R)-4-isopropoxy-6-(4-((3-(4-methyl-1-oxo-1,3-dihydroisobenzofuran-5-yl)piperazin-1-yl)methyl)-1H-pyrazol-1-yl)nicotinonitrile]	26	49
Cc1cn(-c2cc(C)c(CN3CCN[C@H](c4ccc5c(c4C)COC5=O)C3)cn2)cn1 [Example 141-I, (R)-4-methyl-5-(4-((4-methyl-6-(4-methyl-1H-imidazol-1-yl)pyridin-3-yl)methyl)piperazin-2-yl)isobenzofuran-1(3H)-one]	69	7.1
Cc1cn(-c2ccc(CN3CCN[C@H](c4ccc5c(c4C)COC5=O)C3)c(C)n2)cn1 [Example 142-I, (R)-4-methyl-5-(4-((2-methyl-6-(4-methyl-1H-imidazol-1-yl)pyridin-3-yl)methyl)piperazin-2-yl)isobenzofuran-1(3H)-one]	76	8.5
COc1cc(-c2ccc(CN3CCN[C@H](c4ccc5c(c4C)COC5=O)C3)c(OC)n2)ncc1C#N [Example 143-I, (R)-4,6′-dimethoxy-5′-((3-(4-methyl-1-oxo-1,3-dihydroisobenzofuran-5-yl)piperazin-1-yl)methyl)-[2,2′-bipyridine]-5-carbonitrile]	63	49
Cc1cn(-c2ncc(CN3CCN[C@H](c4ccc5c(c4C)COC5=O)C3)cc2F)cn1 [Example 144-I, (R)-5-(4-((5-fluoro-6-(4-mehtyl-1H-imidazol-1-yl)pyridin-3-yl)methyl)piperazin-2-yl)-4-methylisobenzofuran-1(3H)-one]	24	7.8
